Measured values published in US6660742B2, “Compositions and methods of the use thereof achiral analogues of CC-1065 and the duocarmycins” (priority 2000, dated 2003).
Like-named read-outs stand apart in the source and are kept apart here.

Legend:
[1] = tested on: MDA-N; experiment: NCI screen, MDA-N (Breast Cancer); conditions: MDA-N, 48 hour exposure
Experimental: (§1) The compounds of this invention were also tested against the panel of 60 human cancer cell lines at the National Cancer Institute, Bethesda, Md. […] The cytrotoxicity studies were conducted using a 48 hour exposure, and measuring the optical density of sulforhodamide B-derived color.

[2] = tested on: SR; experiment: NCI screen, SR (Leukemia)
Experimental: as §1

[3] = tested on: SNB-19; experiment: NCI screen, SNB-19 (CNS Cancer)
Experimental: as §1

[4] = tested on: OVCAR-3; experiment: NCI screen, OVCAR-3 (Ovarian Cancer)
Experimental: as §1

[5] = tested on: SF-539; experiment: NCI screen, SF-539 (CNS Cancer)
Experimental: as §1

[6] = tested on: TK-10; experiment: NCI screen, TK-10 (Renal Cancer); conditions: TK-10, 48 hour exposure
Experimental: as §1

[7] = tested on: 786-0; experiment: NCI screen, 786-0 (Renal Cancer)
Experimental: as §1

[8] = tested on: MDA-MB-435; experiment: NCI screen, MDA-MB-435 (Breast Cancer); assay type: cell-based, human
Experimental: as §1

[9] = tested on: SK-MEL-28; experiment: NCI screen, SK-MEL-28 (Melanoma)
Experimental: as §1

[10] = tested on: CCRF-CEM; experiment: NCI screen, CCRF-CEM (Leukemia)
Experimental: as §1

[11] = tested on: UACC-62; experiment: NCI screen, UACC-62 (Melanoma)
Experimental: as §1

[12] = tested on: PC-3; experiment: NCI screen, PC-3 (Prostrate Cancer)
Experimental: as §1

[13] = tested on: K-562; experiment: NCI screen, K-562 (Leukemia)
Experimental: as §1

[14] = tested on: SN12C; experiment: NCI screen, SN12C (Renal Cancer)
Experimental: as §1

[15] = tested on: MDA-MB-231/ATCC; conditions: MDA-NB-231/ATCC, 48 hour exposure
[16] = tested on: SF-295; experiment: NCI screen, SF-295 (CNS Cancer)
Experimental: as §1

[17] = tested on: EKVX; experiment: NCI screen, EKVX (Non-Small Cell Lung Cancer)
Experimental: as §1

[18] = tested on: LOX IMVI; experiment: NCI screen, LOX IMVI (Melanoma); conditions: LOX IMVI, 48 hour exposure
Experimental: The compounds of this invention were also tested against the panel of 60 human cancer cell lines at the National Cancer Institute, Bethesda, Md. (44). The cytrotoxicity studies were conducted using a 48 hour exposure, and measuring the optical density of sulforhodamide B-derived color.

[19] = tested on: SNB-75; experiment: NCI screen, SNB-75 (CNS Cancer); conditions: SNB-75, 48 hour exposure
Experimental: as §1

[20] = tested on: HCT-15
[21] = tested on: NCI-H226; experiment: NCI screen, NCI-H226 (Non-Small Cell Lung Cancer); assay type: cell-based, human
Experimental: as §1

[22] = tested on: UO-31; experiment: NCI screen, UO-31 (Renal Cancer); conditions: UO-31, 48 hour exposure
Experimental: as §1

[23] = Log10 Concentration −4.3, 48 hour exposure
[24] = Log10 Concentration −5.3, 48 hour exposure
[25] = Log10 Concentration −6.3, 48 hour exposure
[26] = Log10 Concentration −7.3, 48 hour exposure
[27] = Log10 Concentration −8.3, 48 hour exposure

COC(=O)c1[nH]c2c(O)cc(NC(=O)c3cc4cc(OC)c(OC)c(OC)c4[nH]3)c(CCCl)c2c1C(=O)OC [Compound 22, Dimethyl 4-(2-chloroethyl)-7-hydroxy-5-(5,6,7-trimethoxyindole-2-carboxamido)indole-2,3-dicarboxylate]
Percent Growth ([1]; Log10 Concentration −4.3): 8%
Percent Growth ([1]; Log10 Concentration −5.3): −3%
Percent Growth ([1]; Log10 Concentration −6.3): 5%
Percent Growth ([1]; Log10 Concentration −7.3): 91%
Percent Growth ([1]; Log10 Concentration −8.3): 90%
TGI ([2]; 48 hour exposure): >5.00E−05 Molar
CC50 ([2]; Homo sapiens, 48 h, read-out: LC50): > 50 µM
Percent Growth [2, 23]: 20%
Percent Growth [2, 24]: 27%
Percent Growth [2, 25]: 21%
Percent Growth [2, 26]: 28%
Percent Growth [2, 27]: 51%
TGI ([3]; 48 hour exposure): 1.64E−05 Molar
Percent Growth [3, 23]: −7%
Percent Growth [3, 24]: 7%
Percent Growth [3, 25]: 21%
Percent Growth [3, 26]: 83%
Percent Growth [3, 27]: 89%
TGI ([4]; 48 hour exposure): 6.80E−06 Molar
Percent Growth [4, 23]: −82%
Percent Growth [4, 24]: 13%
Percent Growth [4, 25]: 4%
Percent Growth [4, 26]: 87%
Percent Growth [4, 27]: 97%
TGI ([5]; 48 hour exposure): 2.07E−07 Molar
Percent Growth [5, 23]: −90%
Percent Growth [5, 24]: −84%
Percent Growth [5, 25]: −47%
Percent Growth [5, 26]: 75%
Percent Growth [5, 27]: 89%
TGI [6]: >5.00E−05 Molar
Percent Growth ([6]; Log10 Concentration −4.3): 8%
Percent Growth ([6]; Log10 Concentration −5.3): 22%
Percent Growth ([6]; Log10 Concentration −6.3): 31%
Percent Growth ([6]; Log10 Concentration −7.3): 102%
Percent Growth ([6]; Log10 Concentration −8.3): 100%
TGI ([7]; 48 hour exposure): 4.92E−07 Molar
Percent Growth [7, 23]: −50%
Percent Growth [7, 24]: −26%
Percent Growth [7, 25]: −1%
Percent Growth [7, 26]: 82%
Percent Growth [7, 27]: 94%
TGI ([8]; 48 hour exposure): 3.95E−07 Molar
Percent Growth [8, 23]: −32%
Percent Growth [8, 24]: −28%
Percent Growth [8, 25]: −11%
Percent Growth [8, 26]: 97%
Percent Growth [8, 27]: 96%
TGI ([9]; 48 hour exposure): 1.82E−06 Molar
Percent Growth [9, 23]: −43%
Percent Growth [9, 24]: −11%
Percent Growth [9, 25]: 14%
Percent Growth [9, 26]: 92%
Percent Growth [9, 27]: 91%
TGI ([10]; 48 hour exposure): >5.00E−05 Molar
Percent Growth [10, 23]: 17%
Percent Growth [10, 24]: 18%
Percent Growth [10, 25]: 19%
Percent Growth [10, 26]: 43%
Percent Growth [10, 27]: 77%
TGI ([11]; 48 hour exposure): 1.85E−07 Molar
Percent Growth [11, 23]: −89%
Percent Growth [11, 24]: −78%
Percent Growth [11, 25]: −58%
Percent Growth [11, 26]: 76%
Percent Growth [11, 27]: 90%
TGI ([12]; 48 hour exposure): 6.40E−07 Molar
Percent Growth [12, 23]: −88%
Percent Growth [12, 24]: −32%
Percent Growth [12, 25]: 4%
Percent Growth [12, 26]: 55%
Percent Growth [12, 27]: 81%
TGI ([13]; 48 hour exposure): >5.00E−05 Molar
Percent Growth [13, 23]: 36%
Percent Growth [13, 24]: 34%
Percent Growth [13, 25]: 43%
Percent Growth [13, 26]: 77%
Percent Growth [13, 27]: 94%
TGI ([14]; 48 hour exposure): 7.17E−06 Molar
Percent Growth [14, 23]: −50%
Percent Growth [14, 24]: 9%
Percent Growth [14, 25]: 22%
Percent Growth [14, 26]: 84%
Percent Growth [14, 27]: 90%
TGI [15]: > 5.00E−05 Molar
Percent Growth ([15]; Log10 Concentration −4.3): 10%
Percent Growth ([15]; Log10 Concentration −5.3): 12%
Percent Growth ([15]; Log10 Concentration −6.3): 16%
Percent Growth ([15]; Log10 Concentration −7.3): 89%
Percent Growth ([15]; Log10 Concentration −8.3): 99%
Percent Growth [16]: 1%
TGI ([16]; SF-295, 48 hour exposure): >5.00E−05 Molar
Percent Growth ([16]; SF-295, Log10 Concentration −5.3, 48 hour exposure): 11%
Percent Growth ([16]; SF-295, Log10 Concentration −6.3, 48 hour exposure): 14%
Percent Growth ([16]; SF-295, Log10 Concentration −7.3, 48 hour exposure): 74%
Percent Growth ([16]; SF-295, Log10 Concentration −8.3, 48 hour exposure): 106%
TGI ([17]; 48 hour exposure): 5.14E−07 Molar
Percent Growth [17, 23]: −83%
Percent Growth [17, 24]: −62%
Percent Growth [17, 25]: 1%
Percent Growth [17, 26]: 102%
Percent Growth [17, 27]: 102%
TGI [18]: 3.84E−07 Molar
Percent Growth ([18]; Log10 Concentration −4.3): −61%
Percent Growth ([18]; Log10 Concentration −5.3): −23%
Percent Growth ([18]; Log10 Concentration −6.3): −9%
Percent Growth ([18]; Log10 Concentration −7.3): 66%
Percent Growth ([18]; Log10 Concentration −8.3): 81%
TGI [19]: 1.90E−07 Molar
Percent Growth ([19]; Log10 Concentration −4.3): −51%
Percent Growth ([19]; Log10 Concentration −5.3): −84%
Percent Growth ([19]; Log10 Concentration −6.3): −44%
Percent Growth ([19]; Log10 Concentration −7.3): 60%
Percent Growth ([19]; Log10 Concentration −8.3): 77%
TGI [20]: 4.00E−06 Molar
TGI ([21]; 48 hour exposure): 2.21E−07 Molar
Percent Growth [21, 23]: −76%
Percent Growth [21, 24]: −55%
Percent Growth [21, 25]: −38%
Percent Growth [21, 26]: 69%
Percent Growth [21, 27]: 104%
Percent Growth ([22]; Log10 Concentration −4.3): 8%
Percent Growth ([22]; Log10 Concentration −5.3): 5%
Percent Growth ([22]; Log10 Concentration −6.3): −47%
Percent Growth ([22]; Log10 Concentration −7.3): 91%
Percent Growth ([22]; Log10 Concentration −8.3): 96%
